From patent US20060099712A1, “Correlation of anti-cancer activity of dyes with redox potentials” (Eastman Kodak Company, priority 2004, published 2006)
Values after ≈ are worked out from the molar mass of the structure shown. Values joined by “and” are separate entries in the source; they are usually repeats but may differ in a detail not shown here. Identical values can stand only once. Like-named read-outs stand apart in the source and are kept apart here.

Tests used:
[1] = test system: CV-1 Normal Monkey Kidney Epithelial; assay: Clonogenic dye screening assay, CV-1 cells (IC50); format: cell-based, African green monkey; details: for IC50: Primates; for CV (IC50 in the CV-1 cell line): 3 hrs treatment, unit from method b117-118
Source text: CX-1 is a cancerous human colon adenocarcinoma cell line. CV-1 is a non-cancerous control, which is a kidney epithelial cell line from an African green monkey. IC50 is the dye concentration at which 50% of the cells are killed. Selectivity or kill ratio is defined as the ratio of […] at IC50 for both CX-1 and CV-1. A ratio with a high number indicates a high selectivity.
The dyes were screened in two cell lines. CX-1 is a human colon adenocarcinoma cell line. CV-1 is a kidney epithelial cell line from an African green monkey. CV-1 was used as a reference because no normal human epithelial cell line is available for clonogenic assay.
In the initial screen, dyes were examined at six different concentrations to generate a dose response curve. An IC50 value, the concentration at which 50% of the cells are killed, was then calculated. Initially, a dye concentration of 1.0 μg/mL was the highest examined for the CX-1 cell line and 0.005 μg/mL was the lower limit. The corresponding limits on the CV-1 cell line were […].
The screening procedure used a response curve that was determined from eight dye concentrations. The upper and lower limits of CX-1 were 0.32 and 0.0015 μg/mL, respectively, and the corresponding revised limits on CV-1 were 3.2 and 0.025 μg/mL. The screening results were reported by assigning an IC50 value to each dye for the CV-1 and CX-1 cell lines. These values will be referred to herein simply as CV and CX. The most desirable result would be to have a dye that was highly toxic to carcinoma cells but nontoxic to ‘normal’ cells. One measure of this type of selectivity is the ratio of the IC50's in the normal cell line to that in the carcinoma line, CV/CX.
Compounds are screened via an in vitro assay. CV-1 and CX-1 cells are seeded into separate assay plates. The plates are treated with varying concentrations of test compounds, rinsed, and colonies allowed to grow. IC50's are determined and drugs evaluated based on their selectivity and toxicity. Assay Steps: • I. Seeding Cells • II. Weighing • III. Preparation of Solution • IV. Treatment • V. Rinsing and Feeding • VI. Fixing • VII. IC50 Determination I. Seeding Cells
The cells should be seeded 16-30 hours before treatment. The media for CV-1 cells is DME+5% calf serum +5% Nuserum. The media for CX-1 cells is RPMI/DME (50/50)+5% calf serum +5% Nuserum.
(c) number of cells based on 2000 CX-1 cells/well and 1000 CV-1 cells/well. NOTE: Always make enough cell suspension for 1 extra plate to allow for volume loss during transfers.
• (a) For CV-1: 256 ug/ml-256 ul of 1 mg/ml stock +744 ul DMSO • (b) For CX-1: 25.6 ug/ml-100 ul of 256 ug/ml+900 ul DMSO IV. Treatment • 1. Each plate is treated with 4 test compounds, one positive control and one negative control. • 2. Serial dilutions of the compounds are made in the following way:
2 multi-well pipetters are used. One is set for 10 ul and one for 200 ul. Each is equipped with 6 tips spaced such that they fit into the 6 rows of a plate. 390 ul of media is added to the first column of each plate. 10 ul each of 4 compound solutions, a positive and a negative control are taken up and put into the first column of wells. The 200 ul pipetter is then placed in the same wells, pipetted up and down 3 times and two 200 ul aliquots are moved to the next column of wells. This column is pipetted up and down 3 times and 400 ul moved to column 3, etc. The final 400 ul excess from column 8 is discarded.
• 3. Label the plates along the front, each row −1 compound. • 4. Incubate the plates at 37° C. for 3 hrs. V. Rinsing • 1. Prepare several bottles of CX-1 and CV-1 media. • 2. Check for precipitate in first column of each plate and note. • 3. Starting with the plates treated first, rinse several plates at a time by aspirating the treatments and refilling each well with 0.5-1.0 ml of the rinse media. Aspirate and refill 2 more times for a total of 3 rinses. • 4.

[2] = test system: CX-1 Human Colon Carcinoma; assay: Clonogenic dye screening assay, CX-1 cells (IC50); format: cell-based; set-up: CX: unit not given here; details: for IC50: Homo sapiens; for CV/CX (selectivity, kill ratio): ratio of IC50 in normal CV-1 line to IC50 in carcinoma CX-1 line; for CV/C: Table XXI, selectivity ratio, value of 1 where dye inactive; for Selectivity: Table 1, cell line not given, values equal CV/CX of Table II; for CX (IC50 in the CX-1 cell line): 3 hrs treatment, unit from method b117-118
Procedure, shortened: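 Cells seeded 16-30 h ahead (2000 CX-1 or 1000 CV-1 per well), exposed to serially diluted dyes for 3 h at 37 °C, rinsed three times, then grown into colonies. Eight-point curves spanned 0.32-0.0015 μg/mL (CX-1) and 3.2-0.025 μg/mL (CV-1). IC50 is the concentration killing 50% of cells.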

[3] = CV-1, read-out: CV (IC50 in the CV-1 cell line)
[4] = CX-1, read-out: CX (IC50 in the CX-1 cell line)
[5] = CV-1, 3 hrs treatment, colonies after 7-10 days, unit from method, read-out: CV (IC50 in the CV-1 cell line)
[6] = CV-1, Table XXI, oxathiacarbocyanine nitrogen substituents, CV-1 cells, read-out: CV
[7] = CX-1, 3 hrs treatment, colonies after 7-10 days, unit from method, read-out: CX (IC50 in the CX-1 cell line)
[8] = CX-1, Table XXI, oxathiacarbocyanine nitrogen substituents, CX-1 cells, read-out: CX
[9] = Table XVI, selectivity ratio of IC50 values
[10] = Table XVII, benzotellurazole derivatives, CX-1 cells
[11] = Table XVII, selectivity ratio of IC50 values

CC[n+]1c(/C=C/c2ccc(N(C)C)cc2)[te]c2ccc(C)cc21 [Dye D-156]
IC50 [1, 3]: 3 µg/mL
IC50 [2, 4]: 0.05 µg/mL
CV/CX (selectivity, kill ratio) [2]: 60

CCN1/C(=C/C=C/c2sc3ccccc3[n+]2CC)[Se]c2ccc(OC)cc21 [Dye D-134]
IC50 [1, 3]: 0.2 µg/mL
IC50 [2, 4]: 0.0025 µg/mL
CV/CX (selectivity, kill ratio) [2]: 80

CC[n+]1c(/C=C/C=C2\Sc3ccccc3N2C(C)C)oc2ccccc21 [Dye D-122]
IC50 [1, 5]: 0.4 µg/mL
IC50 [1, 6]: 0.4 µg/mL
IC50 [2, 7]: < 0.005 µg/mL
IC50 [2, 8]: < 0.005 µg/mL
CV/C [2]: >80.0
CV/CX (selectivity, kill ratio) [2]: 80 and >80.0

CCN1/C(=C/C=C/c2sc3ccccc3[n+]2CC)[Se]c2ccc(Cl)cc21 [Dye D-135]
IC50 [1, 3]: 1 µg/mL
IC50 [2, 4]: < 0.005 µg/mL
Selectivity [2]: 200
CV/CX (selectivity, kill ratio) [2]: >200.0 and 200

CC[n+]1c(/C=C/C=C2/c3c(C)ccc(C)c3C(C)(Cc3ccccc3)N2C)sc2ccccc21 [Dye D-132]
IC50 [1, 5]: 3 µg/mL
IC50 ([1]; CV-1, Table XVI, unsymmetrical dyes, CV-1 cells, read-out: CV): 3 µg/mL
IC50 [2, 7]: 0.007 µg/mL
IC50 ([2]; CX-1, Table XVI, unsymmetrical dyes, CX-1 cells, read-out: CX): 0.007 µg/mL
Selectivity [2]: 428.57
CV/CX [2, 9]: 428.6
CV/CX (selectivity, kill ratio) [2]: 430 and 428.57

CCN1/C(=C/C=C/c2cc3scc([S-])[n+]3c3ccccc23)Oc2ccccc21 [Dye D-141]
IC50 [1, 5]: 0.5 µg/mL (≈ 1.24 µM)
IC50 [2, 7]: < 0.005 µg/mL
CV/CX (selectivity, kill ratio) [2]: 100

CCN1/C(=C/C=C/c2oc3ccccc3[n+]2CC)Sc2cccc(-c3ccccc3)c21.[I-] [Dye D-106]
CV (IC50 in the CV-1 cell line) ([1]; colonies after 7-10 days): 0.8 µg/mL
CX (IC50 in the CX-1 cell line) ([2]; colonies after 7-10 days): 0.01 µg/mL
CV/CX (selectivity, kill ratio) [2]: 80

CN1/C(=C/c2ccc3ccc4ccccc4c3[n+]2C)Sc2ccccc21 [Dye D-130]
IC50 [1, 5]: 0.5 µg/mL
IC50 [2, 7]: 0.005 µg/mL
CV/CX (selectivity, kill ratio) [2]: 100

CC[n+]1c(/C=C/C=C2\Sc3ccccc3N2CC#N)oc2ccccc21 [Dye D-124]
IC50 [1, 5]: 10 µg/mL
IC50 [1, 6]: 10 µg/mL
IC50 [2, 7]: 0.1 µg/mL
IC50 [2, 8]: 0.1 µg/mL
CV/C [2]: 100.0
CV/CX (selectivity, kill ratio) [2]: 100

CC[n+]1c(/C=C/C=C2\[Te]c3ccccc3N2C)sc2ccccc21 [Dye D-152]
IC50 ([1]; CV-1, read-out: CV): 0.3 µg/mL
IC50 [1, 3]: 0.3 µg/mL
IC50 ([2]; CX-1, read-out: CX): < 0.005 µg/mL
IC50 [2, 4]: < 0.005 µg/mL
CV/CX [2, 9]: >60.0
CX [2, 10]: <0.005
CV/CX [2, 11]: >60.0
CV/CX (selectivity, kill ratio) [2]: 60

CCN1/C(=C/C=C/c2oc3ccccc3[n+]2CC)Sc2ccc(O)cc21.[I-] [Dye D-128]
CV (IC50 in the CV-1 cell line) ([1]; colonies after 7-10 days): 0.3 µg/mL
CV/CX (selectivity, kill ratio) [2]: 60

CCN1/C(=C\C=c2\s/c(=C/c3sc4ccccc4[n+]3CC)n(C)c2=O)Sc2ccccc21 [Dye D-111]
IC50 [1, 5]: 8 µg/mL
IC50 [2, 7]: 0.03 µg/mL
CV/CX (selectivity, kill ratio) [2]: 270 and 266.7

CCN1/C(=C/C(C)=C/c2sc3ccc4ccccc4c3[n+]2CC)Oc2ccc3ccccc3c21 [drawing 40|E|Me]
CV (IC50 in the CV-1 cell line) ([1]; colonies after 7-10 days): 0.1 µg/mL
CX (IC50 in the CX-1 cell line) ([2]; colonies after 7-10 days): 0.03 µg/mL and 0.05 µg/mL
CV/CX (selectivity, kill ratio) [2]: 3.33 and 2.0

CC[n+]1c(/C=C/C=C2\SC=C(C)N2C)oc2ccccc21 [Dye D-120]
IC50 [1, 5]: 5 µg/mL
IC50 [2, 7]: 0.01 µg/mL
CV/CX (selectivity, kill ratio) [2]: 500

CCN1/C(=C/C(=C/c2oc3ccccc3[n+]2CC)SC)Sc2ccccc21.[I-] [Dye D-137]
CV (IC50 in the CV-1 cell line) ([1]; colonies after 7-10 days): 3.0 µg/mL
CX (IC50 in the CX-1 cell line) ([2]; colonies after 7-10 days): 0.03 µg/mL
CV/CX (selectivity, kill ratio) [2]: 100

CCSC(=C\c1oc2ccccc2[n+]1CC)/C=C1\Sc2ccccc2N1CC.[I-] [Dye D-142]
CV (IC50 in the CV-1 cell line) ([1]; colonies after 7-10 days): 0.5 µg/mL
CX (IC50 in the CX-1 cell line) ([2]; colonies after 7-10 days): <0.005 µg/mL

CCN1/C(=C/C=N/c2sc3ccccc3[n+]2CC)Sc2ccccc21 [Dye D-149]
IC50 [1, 5]: 7 µg/mL
IC50 [2, 7]: 0.09 µg/mL
CV/CX (selectivity, kill ratio) [2]: 77.8

CCN1/C(=C/C=c2\s/c(=C\c3sc4ccccc4[n+]3CC)n(CCC(=O)O)c2=O)Sc2ccccc21 [Dye D-167]
IC50 [1, 5]: 10 µg/mL
CV/CX (selectivity, kill ratio) [2]: 100.0

CCN1/C(=C/C=C/c2sc3ccccc3[n+]2CCO)Sc2ccccc21 [Dye D-125]
IC50 [1, 5]: > 3.2 µg/mL
IC50 ([1]; CV-1, Table XX, thiacarbocyanine nitrogen substituents, CV-1 cells, read-out: CV): > 3.2 µg/mL
IC50 [2, 7]: 0.035 µg/mL
IC50 ([2]; CX-1, Table XX, thiacarbocyanine nitrogen substituents, CX-1 cells, read-out: CX): 0.035 µg/mL
CV/CX ([2]; Table XX, ratio given a value of 1 where dye inactive): 91.4
CV/CX (selectivity, kill ratio) [2]: >91.4

CCN1/C(=C/C=C/c2oc3ccc(OC)cc3[n+]2CC)Sc2ccccc21.[I-] [Dye D-136]
CV (IC50 in the CV-1 cell line) ([1]; colonies after 7-10 days): 0.3 µg/mL
CX (IC50 in the CX-1 cell line) ([2]; colonies after 7-10 days): <0.005 µg/mL
CV/CX (selectivity, kill ratio) [2]: >60.0 and 60

CC[n+]1c(/C=C/C=C2C=CC=CN2C)sc2ccccc21 [Dye 2-pyridine]
CX ([2]; Table XVI, unsymmetrical dyes, CX-1 cells): 0.08
CV/CX [2, 9]: 50.0

CN1C(=CC=Cc2[te]c3ccccc3[n+]2C)[Te]c2ccccc21 [R=M, X=Te, Z1=H, R2=H, Z2=H]
CX [2, 10]: 0.30
CV/CX [2, 11]: 16.7

CC[n+]1c(/C=C(/C=C2\Oc3ccccc3N2C)Sc2ccccc2)sc2ccccc21 [drawing 39|M/E|H|SPh]
CX (IC50 in the CX-1 cell line) ([2]; colonies after 7-10 days): 0.1 µg/mL
CV/CX (selectivity, kill ratio) [2]: 3.0

CN1C(=CC=Cc2[se]c3ccccc3[n+]2C)[Se]c2ccccc21 [Dye B-405]
CX ([2]; Table XV, symmetrical dyes, CX-1 cells): 0.008
CV/CX ([2]; Table XV, selectivity ratio of IC50 values): 7.5
